From patent publication US11472808B2, “Substituted pyrrolo[1,2-c]pyrimidines as hepatitis B antiviral agents” (Enanta Pharmaceuticals, Inc., priority 2019, dated 2022)

Assays:
[1] = Compound toxicity, ATPLite total ATP levels; type: cell-based; settings: human, HepG2 cells; concentration reducing total ATP levels by 50% relative to no drug controls; ATPLite three days after compound addition
Experimental: Compound toxicity is evaluated by seeding cells at 15,000 cells/well and treating with compound as described above.

[2] = tested on: HBV; experiment: HepAD38 anti-HBV assay: reduction of viral product accumulation (virion DNA qPCR, HBsAg/HBeAg ELISA); type: cell-based; settings: Hepatitis B virus, 120 h; HepAD38 cells; concentration reducing viral product accumulation by 50% relative to no drug controls; harvest five days after compound addition; read-out: HepAD38 EC50
Outline: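 Tetracycline-free HepAD38 cells treated 5 days with compound (1:200 DMSO dilution), or 8 days with media and compound refreshed on d2 and d5. Virion DNA quantified by qPCR; HBsAg or HBeAg by ELISA. EC50 is the concentration reducing viral product accumulation 50% versus no-drug controls.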

`CC(C)C[C@H](NS(=O)(=O)N[C@H]1CC2=C(c3ccn(C(F)F)n3)[C@H](c3ccc(F)cc3Cl)N=C(c3nccs3)N2C1)c1ccccn1` [Example 359] showed a CC50 at 3 days [1] greater than 25 µM and an EC50 [2] of less than 0.1 µM.

For `O=S(=O)(N[C@H]1CC2=C(c3ccn(C(F)F)n3)[C@H](c3ccc(F)cc3Cl)N=C(c3nccs3)N2C1)N1CCC(CO)CC1` [Example 88], the CC50 at 3 days [1] was greater than 25 µM and the EC50 [2] was less than 0.1 µM.

`Cn1ccc(C2(O)CCN(S(=O)(=O)N[C@H]3CC4=C(c5ccn(C(F)F)n5)[C@H](c5ccc(F)cc5Cl)N=C(c5nccs5)N4C3)CC2)n1` [Example 304] showed a CC50 at 3 days [1] greater than 25 µM and an EC50 [2] of less than 0.1 µM.
